Experimental data: patent publication US12344615B2, “Substituted pyridines as ion channel modulators” (PRAXIS PRECISION MEDICINES, INC., priority 2019, dated 2025)

These molecules were tested against T1, INaL v1.6 (late sodium current, HEK-293 cells expressing recombinant sodium channels) (Homo sapiens, UniProt Q9UQD0) (assay: Inhibition of ATX-II evoked Nav late current (INaL), PatchXpress electrophysiology). Conditions: HEK293, compound at 1 μM, late current evoked by ATX-II 300 nM.
T1 construct: expressed in transfected cells; host or cells: HEK-293
T1 sequence (Q9UQD0 whole entry): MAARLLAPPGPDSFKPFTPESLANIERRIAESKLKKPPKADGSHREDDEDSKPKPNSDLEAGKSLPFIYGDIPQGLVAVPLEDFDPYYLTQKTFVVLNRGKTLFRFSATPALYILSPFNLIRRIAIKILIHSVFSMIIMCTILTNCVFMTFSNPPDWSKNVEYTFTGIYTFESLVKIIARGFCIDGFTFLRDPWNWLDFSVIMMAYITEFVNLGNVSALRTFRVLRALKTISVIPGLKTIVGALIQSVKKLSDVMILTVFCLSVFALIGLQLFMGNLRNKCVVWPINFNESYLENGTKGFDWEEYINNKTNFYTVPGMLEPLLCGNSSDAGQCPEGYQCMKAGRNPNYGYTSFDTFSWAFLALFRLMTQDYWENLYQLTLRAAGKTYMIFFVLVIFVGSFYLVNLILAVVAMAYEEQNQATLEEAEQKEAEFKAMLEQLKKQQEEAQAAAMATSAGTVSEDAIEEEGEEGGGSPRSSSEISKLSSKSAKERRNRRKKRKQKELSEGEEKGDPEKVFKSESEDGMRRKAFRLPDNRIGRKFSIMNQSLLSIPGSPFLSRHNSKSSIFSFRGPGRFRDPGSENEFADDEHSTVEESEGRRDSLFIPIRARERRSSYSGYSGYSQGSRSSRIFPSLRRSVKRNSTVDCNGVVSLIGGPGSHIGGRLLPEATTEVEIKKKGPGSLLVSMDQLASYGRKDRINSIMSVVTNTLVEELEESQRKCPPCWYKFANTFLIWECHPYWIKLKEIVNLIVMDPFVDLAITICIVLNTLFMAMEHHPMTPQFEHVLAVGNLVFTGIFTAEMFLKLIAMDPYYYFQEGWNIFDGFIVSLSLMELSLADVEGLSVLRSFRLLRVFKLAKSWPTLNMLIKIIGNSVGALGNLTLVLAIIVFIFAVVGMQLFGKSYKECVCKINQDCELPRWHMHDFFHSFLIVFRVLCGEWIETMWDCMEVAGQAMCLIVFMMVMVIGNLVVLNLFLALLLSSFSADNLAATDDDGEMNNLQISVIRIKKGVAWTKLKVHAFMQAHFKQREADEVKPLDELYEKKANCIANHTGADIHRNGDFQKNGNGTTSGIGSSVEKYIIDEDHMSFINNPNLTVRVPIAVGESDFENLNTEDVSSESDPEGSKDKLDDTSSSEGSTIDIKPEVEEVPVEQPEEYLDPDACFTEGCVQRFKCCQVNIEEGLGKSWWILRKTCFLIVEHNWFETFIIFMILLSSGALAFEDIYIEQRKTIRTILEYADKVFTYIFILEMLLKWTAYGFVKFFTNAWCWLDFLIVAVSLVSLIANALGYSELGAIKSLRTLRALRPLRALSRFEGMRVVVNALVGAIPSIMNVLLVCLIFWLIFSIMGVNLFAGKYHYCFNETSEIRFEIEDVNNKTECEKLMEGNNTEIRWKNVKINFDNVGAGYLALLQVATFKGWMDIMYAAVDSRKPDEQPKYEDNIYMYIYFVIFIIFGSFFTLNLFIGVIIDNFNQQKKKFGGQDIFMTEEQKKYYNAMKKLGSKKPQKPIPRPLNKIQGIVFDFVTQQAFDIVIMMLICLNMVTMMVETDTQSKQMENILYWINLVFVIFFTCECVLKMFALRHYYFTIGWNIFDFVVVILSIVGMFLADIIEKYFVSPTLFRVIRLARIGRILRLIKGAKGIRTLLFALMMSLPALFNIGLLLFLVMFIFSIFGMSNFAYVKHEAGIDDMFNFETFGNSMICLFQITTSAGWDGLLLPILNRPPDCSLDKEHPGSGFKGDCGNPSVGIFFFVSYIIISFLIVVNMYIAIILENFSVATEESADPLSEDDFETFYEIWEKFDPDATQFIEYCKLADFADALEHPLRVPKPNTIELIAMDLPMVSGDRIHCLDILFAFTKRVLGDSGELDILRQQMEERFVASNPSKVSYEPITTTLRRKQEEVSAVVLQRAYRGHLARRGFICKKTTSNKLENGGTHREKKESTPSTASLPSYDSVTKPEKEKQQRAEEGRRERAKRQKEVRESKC
Type: cell-based
Protocol: Functional characterization of exemplary compounds to modulate voltage gated sodium currents was accomplished using the PatchXpress™ high throughput electrophysiology platforms (Molecular Devices, Sunnyvale, CA). HEK-293 cells expressing recombinant sodium channels were grown in DMEM/high-glucose Dulbecco's modified, 10% FBS, 2 mM sodium pyruvate, and G418. Nav channel expressing cells were grown to 50%-80% confluency and harvested by trypsinization. Trypsinized cells were washed and resuspended in extracellular buffer at a concentration of 1×10^6 cells/ml. The onboard liquid handling facility of the PatchXpress was used for dispensing cells and application of test compounds. Nav late currents were evoked by the application of ATX-II, 300 nM. Currents were evoked by depolarizing pulses to 0 mV for 200 ms from a non-inactivating holding potential (e.g., −120 mV to −150 mV) at a frequency of 0.1 Hz. Late current amplitude and stability were determined by analyzing the mean current amplitude over the 175-195 msec region of the 200 msec test pulse. Following steady state block with exemplary compounds (e.g., as described herein) at 1 μM, a Na^+ free solution containing an impermeant cation (e.g., Choline or NDMG) was added for determination of the 0 current level. Late current amplitudes for each test condition were determined from the mean of the 175-195 msec region of the 200 msec test pulse. Percent inhibition of steady state currents was calculated as (compound−baseline)/(control−baseline)*100, where control represents INaL recorded in the absence of compound.

inhibition at 1 µM [%] | SMILES
50 to 75 | Cc1c(-c2cnc(O[C@H](C)C(F)(F)F)c(F)c2)ncc2nnc(C(F)(F)F)n12 [Compound 39, 6-[5-fluoro-6-[(1R)-2,2,2-trifluoro-1-methyl-ethoxy]-3-pyridyl]-5-methyl-3-(trifluoromethyl)-[1,2,4]triazolo[4,3-a]pyrazine]
> 75 | Cc1cc2nnc(C(F)(F)F)n2nc1-c1ccc(O[C@@H](C)C(F)(F)F)nc1 [Compound 48, (S)-7-methyl-3-(trifluoromethyl)-6-(6-((1,1,1-trifluoropropan-2-yl)oxy)pyridin-3-yl)-[1,2,4]triazolo[4,3-b]pyridazine]
> 75 | CC(C)(Oc1ncc(-c2cn3c(C(F)(F)F)nnc3cn2)cc1F)C(F)(F)F [Compound 3, 6-[5-fluoro-6-(2,2,2-trifluoro-1,1-dimethyl-ethoxy)-3-pyridyl]-3-(trifluoromethyl)-[1,2,4]triazolo[4,3-a]pyrazine]
> 75 | C[C@H](Oc1ccc(-c2nn3c(C(F)(F)F)nnc3cc2Cl)cn1)C(F)(F)F [Compound 46, (S)-7-chloro-3-(trifluoromethyl)-6-(6-((1,1,1-trifluoropropan-2-yl)oxy)pyridin-3-yl)-[1,2,4]triazolo[4,3-b]pyridazine]
50 to 75 | Fc1cc(-c2cn3c(C(F)(F)F)nnc3cn2)cnc1OCC1CC1(F)F (single isomer, unassigned) [28 (Isomer 1)]
< 50 | Fc1cc(-c2cn3c(C(F)(F)F)nnc3cn2)cnc1OC1(C(F)(F)F)COC1 [Compound 2, 6-[5-fluoro-6-[3-(trifluoromethyl)oxetan-3-yl]oxy-3-pyridyl]-3-(trifluoromethyl)-[1,2,4]triazolo[4,3-a]pyrazine]
50 to 75 | Fc1cc(-c2cn3c(C(F)(F)F)nnc3cn2)cnc1OCC1CC1(F)F (stereo not drawn) [Compound 29]
50 to 75 | C[C@@H](Oc1ncc(-c2nn3c(C(F)(F)F)nnc3cc2Cl)cc1F)C(F)(F)F [Compound 42, 7-chloro-6-[5-fluoro-6-[(1R)-2,2,2-trifluoro-1-methyl-ethoxy]-3-pyridyl]-3-(trifluoromethyl)-[1,2,4]triazolo[4,3-b]pyridazine]
> 75 | CC(C)(Oc1ncc(-c2ccc3nnc(C(F)(F)F)n3n2)cc1F)C(F)(F)F [Compound 34, 6-[5-fluoro-6-(2,2,2-trifluoro-1,1-dimethyl-ethoxy)-3-pyridyl]-3-(trifluoromethyl)-[1,2,4]triazolo[4,3-b]pyridazine]
50 to 75 | CC(C)(Oc1ncc(-c2cn3c(C4CC(F)(F)C4)nnc3cn2)cc1F)C(F)(F)F [Compound 8, 3-(3,3-difluorocyclobutyl)-6-[5-fluoro-6-(2,2,2-trifluoro-1,1-dimethyl-ethoxy)-3-pyridyl]-[1,2,4]triazolo[4,3-a]pyrazine]
< 50 | Fc1cc(-c2cn3c(C(F)F)nnc3cn2)cnc1OCC1CC1(F)F (single isomer, unassigned) [30 (Isomer 1)]
50 to 75 | Cc1cc2nnc(C(F)(F)F)n2nc1-c1ccc(OC(C)(C)C(F)(F)F)nc1 [Compound 51, 7-methyl-6-[6-(2,2,2-trifluoro-1,1-dimethyl-ethoxy)-3-pyridyl]-3-(trifluoromethyl)-[1,2,4]triazolo[4,3-b]pyridazine]
50 to 75 | Fc1cc(-c2ccc3nnc(C(F)(F)F)n3n2)cnc1OC1(C(F)(F)F)COC1 [Compound 4, 6-[5-fluoro-6-[3-(trifluoromethyl)oxetan-3-yl]oxy-3-pyridyl]-3-(trifluoromethyl)-[1,2,4]triazolo[4,3-b]pyridazine]
> 75 | CC(C)(Oc1ncc(-c2ccc3nnc(C4CC4(F)F)n3n2)cc1F)C(F)(F)F (single isomer, unassigned) [11 (Isomer 1)]
> 75 | CC(C)(Oc1ccc(-c2nn3c(C(F)(F)F)nnc3cc2Cl)cn1)C(F)(F)F [Compound 50, 7-chloro-6-[6-(2,2,2-trifluoro-1,1-dimethyl-ethoxy)-3-pyridyl]-3-(trifluoromethyl)-[1,2,4]triazolo[4,3-b]pyridazine]
> 75 | CC(C)(Oc1ncc(-c2nn3c(C(F)(F)F)nnc3cc2Cl)cc1F)C(F)(F)F [Compound 41, 7-chloro-6-[5-fluoro-6-(2,2,2-trifluoro-1,1-dimethyl-ethoxy)-3-pyridyl]-3-(trifluoromethyl)-[1,2,4]triazolo[4,3-b]pyridazine]
< 50 | Fc1cc(-c2cn3c(C(F)F)nnc3cn2)cnc1OCC1CC1(F)F (stereo not drawn) [Compound 31, 6-[6-[(2,2-difluorocyclopropyl)methoxy]-5-fluoro-3-pyridyl]-3-(difluoromethyl)-[1,2,4]triazolo[4,3-a]pyrazine]
50 to 75 | Fc1cc(-c2ccc3nnc(C(F)(F)F)n3n2)cnc1OCC1CC1(F)F (stereo not drawn) [Compound 24, 6-[6-[(2,2-difluorocyclopropyl)methoxy]-5-fluoro-3-pyridyl]-3-(trifluoromethyl)-[1,2,4]triazolo[4,3-b]pyridazine]
50 to 75 | Cc1cc2nnc(C(F)(F)F)n2nc1-c1cnc(O[C@H](C)C(F)(F)F)c(F)c1 [Compound 45, (R)-6-(5-fluoro-6-((1,1,1-trifluoropropan-2-yl)oxy)pyridin-3-yl)-7-methyl-3-(trifluoromethyl)-[1,2,4]triazolo[4,3-b]pyridazine]
> 75 | C[C@H](Oc1ncc(-c2ccc3nnc(C(F)F)n3n2)cc1F)C(F)(F)F [Compound 15, 3-(difluoromethyl)-6-[5-fluoro-6-[(1S)-2,2,2-trifluoro-1-methyl-ethoxy]-3-pyridyl]-[1,2,4]triazolo[4,3-b]pyridazine]
> 75 | Fc1cc(-c2ccc3nnc(C(F)(F)F)n3n2)cnc1OC1CC(F)(F)C1(F)F (single isomer, unassigned) [25 (Isomer 1)]
> 75 | C[C@@H](Oc1ncc(-c2ccc3nnc(C(F)F)n3n2)cc1F)C(F)(F)F [Compound 17, 3-(difluoromethyl)-6-[5-fluoro-6-[(1R)-2,2,2-trifluoro-1-methyl-ethoxy]-3-pyridyl]-[1,2,4]triazolo[4,3-b]pyridazine]
> 75 | CC(C)(Oc1ncc(-c2ccc3nnc(C4CC(F)(F)C4)n3n2)cc1F)C(F)(F)F [Compound 14, 3-(3,3-difluorocyclobutyl)-6-[5-fluoro-6-(2,2,2-trifluoro-1,1-dimethyl-ethoxy)-3-pyridyl]-[1,2,4]triazolo[4,3-b]pyridazine]
50 to 75 | Cc1cc2nnc(C(F)(F)F)n2nc1-c1ccc(O[C@H](C)C(F)(F)F)nc1 [Compound 49, (R)-7-methyl-3-(trifluoromethyl)-6-(6-((1,1,1-trifluoropropan-2-yl)oxy)pyridin-3-yl)-[1,2,4]triazolo[4,3-b]pyridazine]
> 75 | Cc1cc2nnc(C(F)(F)F)n2nc1-c1cnc(OC(C)(C)C(F)(F)F)c(F)c1 [Compound 40, 6-[5-fluoro-6-(2,2,2-trifluoro-1,1-dimethyl-ethoxy)-3-pyridyl]-7-methyl-3-(trifluoromethyl)-[1,2,4]triazolo[4,3-b]pyridazine]

SMILES | inhibition at 1 µM [%]
Fc1cc(-c2cn3c(C(F)(F)F)nnc3cn2)cnc1OC1(C(F)(F)F)CCC1 [Compound 7, 6-[5-fluoro-6-[1-(trifluoromethyl)cyclobutoxy]-3-pyridyl]-3-(trifluoromethyl)-[1,2,4]triazolo[4,3-a]pyrazine] | > 75
Fc1cc(-c2ccc3nnc(C(F)(F)F)n3n2)cnc1OC1CC(F)(F)C1(F)F (stereo not drawn) [Compound 26, 6-[5-fluoro-6-(2,2,3,3-tetrafluorocyclobutoxy)-3-pyridyl]-3-(trifluoromethyl)-[1,2,4]triazolo[4,3-b]pyridazine] | > 75
Fc1cc(-c2ccc3nnc(C(F)(F)F)n3n2)cnc1OC1(C(F)(F)F)CCC1 [Compound 6, 6-[5-fluoro-6-[1-(trifluoromethyl)cyclobutoxy]-3-pyridyl]-3-(trifluoromethyl)-[1,2,4]triazolo[4,3-b]pyridazine] | > 75
Fc1cc(-c2cn3c(C(F)F)nnc3cn2)cnc1OC1(C(F)(F)F)CCC1 [Compound 9, 3-(difluoromethyl)-6-[5-fluoro-6-[1-(trifluoromethyl)cyclobutoxy]-3-pyridyl]-[1,2,4]triazolo[4,3-a]pyrazine] | > 75
FC(F)c1nnc2cnc(-c3ccc(OC4CC(F)(F)C4)nc3)cn12 [Compound 52, 6-(6-(3,3-difluorocyclobutoxy)pyridin-3-yl)-3-(difluoromethyl)-[1,2,4]triazolo [4,3-a]pyrazine] | 50 to 75

Same assay, conditions: compound at 1 μM, late current evoked by ATX-II 300 nM

INaL v1.6 % Inhibition | SMILES
B (inhibition of 50% to 75%) | CC(C)(Oc1ncc(-c2cn3c(C4CC4(F)F)nnc3cn2)cc1F)C(F)(F)F (single isomer, unassigned) [13 (Isomer 2)]
B (inhibition of 50% to 75%) | C[C@H](Oc1ncc(-c2cn3c(C4CC4(F)F)nnc3cn2)cc1F)C(F)(F)F (single isomer, unassigned) [18 (Isomer 2)]
B (inhibition of 50% to 75%) | C[C@@H](Oc1ncc(-c2cn3c(C4CC4(F)F)nnc3cn2)cc1F)C(F)(F)F (single isomer, unassigned) [16 (Isomer 2)]
